Test results taken from patent US7056734B1, “Differentiation of non-insulin producing cells into insulin producing cells by GLP-1 or exendin-4 and uses thereof” (The United States of America as represented by the …, priority 1998, dated 2006).

Tests used:
diabetic mice = assay: Five-day daily ip exendin-4 in 14 weeks old diabetic mice; type: in vivo, mouse; settings: 24 nmol/kg ip daily
Method: In another group of eight diabetic mice 14 weeks old we gave 24 nmol/kg exendin-4 ip daily and NaCl ip daily for five days to four each of the group.
Assays. Plasma glucose was measured by the glucose oxidase method (Wang et al., 1997). Insulin was measured by RIA as previously described (See Example 1). Hb A1c was assayed using a BIO-RAD (Herculas Calif.) DiaSTAT machine which uses low pressure cation exchange chromatography in conjunction with gradient elution to separate hemoglobin subtypes and variants from hemolyzed blood. The separated hemoglobin fractions were monitored by means of absorption of light at 415 nm.

22 month old Wistar rats = assay: Intraperitoneal glucose tolerance test after 48 hrs subcutaneous GLP-1 infusion; type: in vivo, rat; settings: […] for 48 hrs
Method: The rats were implanted with an Alzet micro-osmotic pump (Alza Corp., Palo Alto, Calif.) in the interscapular region for 48 hrs. […] Control animals received normal saline in their pumps and received their infusion for the same length of time.
Blood samples were obtained at 15, 30, 45, 60, and 90 min in order to estimate glucose and insulin levels. Blood (200 μl) was drawn into heparinized tubes containing EDTA for glucose and insulin determination.
Assays. Plasma glucose was measured by the glucose oxidase method (Egan et al., 1991). […] The amount of cellular proteins was measured using the Bradford method (Bio-Rad Richmond, Calif.) using bovine γ-globulin as standard.

[1] = system: Hexokinase I, II and III mRNA; assay: Slot-blot quantitation of hexokinase I, II and III mRNA in pancreata and islets; type: in vivo, rat; settings: whole pancreata and islets
Method: Whole pancreata of rats that had been subjected to 48 hrs infusion with GLP-1 or saline were used to extract total RNA. After an overnight fast, animals were sacrificed, pancreata were removed and frozen in liquid nitrogen as quickly as possible. RNA was extracted by homogenization in guanidinium isothiocyanate, followed by ultracentrifugation on a 5.7 M cesium chloride cushion (Glisin et al., 1974; Chigwin et al., 1979). Poly-A RNA was then prepared from total RNA by affinity chromatography using oligo (dT) columns (Biolabs INC, Beverly, Mass.). RNA was quantified by spectrophotometric analysis at […]. Slot-blot analysis using poly-A RNA was used for quantitation of mRNA levels of glucokinase, which is the main glucose sensor of the beta cell (Matschinsky, 1990), the three hexokinases, GLUT2, the major glucose transporter of the beta cell (Mueckler, 1990), and insulin. Four micrograms of poly-A RNA were diluted in 50 μl TE buffer (Tris-HCL 10 mM, EDTA 1 mM, pH 7.4), 20 μl of 37% formaldehyde and 20 μl of 10× SSC. Samples were incubated at 60° C. for 15 min and then diluted with 1 ml of ice-cold 10× SSC (1×SCC=0.15 M NaCl+0.015 sodium citrate). […]
RNA isolation and quantitation of mRNAs in islets of Langerhans. […] Slot-Blot analysis was carried out to quantitate mRNA levels of the hexokinases, GLUT2, and insulin.

Wistar rats = settings: De Ore et al., 1997; cited from earlier work
AR42J cells = assay: Immunoreactive insulin release from treated AR42J cells (RIA); type: cell-based, rat
Method: Measurement of immunoreactive insulin. AR42J cells were cultured as before in 12-well cluster plates. When cells reached 60% confluence, they were treated with GLP-1 for 3 days. At the beginning of the experiments, an aliquot of the medium was taken in order to assay the insulin accumulation in the medium. Then the cells were twice washed with Kreb's Ringer Balanced Buffer (KRBB) and incubated in the same buffer containing 10 mM glucose for another 1 h. The medium was collected and kept at −20° C. until insulin levels were assayed by RIA (See Example 1; Wang et al., Endocrinology, 1995). The cells were washed with PBS and detached with 0.25% typsin and 0.02% EDTA. The cell pellet was collected and lysed with formic acid for protein determination by the Bradford method (Bradford, 1976), using bovine-globulin as standard.

Compound | blood sugars after five days (diabetic mice; NaCl-treated 640±37) | insulin levels after five days (diabetic mice; NaCl-treated 1,072±54) | blood glucose during glucose tolerance test (22 month old Wistar rats; 15 min after 1 g/kg ip glucose, control 11.61±0.23) | blood glucose during glucose tolerance test (22 month old Wistar rats; 30 min after 1 g/kg ip glucose, control 10.36±0.43) | Hexokinase I, II and III mRNA levels [1] | dose giving maximal insulin response (Wistar rats) | insulin in cell culture medium (AR42J cells; 1 nM GLP-1 for 3 days, 60–72 h time period, mean±SD of 3 cultures) | glucose-induced insulin in buffer (AR42J cells; 3 days of GLP-1, then KRBB with 10 mM glucose for 1 h, control cells zero)
exendin-4 | 355 ± 21 mg/dL | 6,904±705 pmol/l |  |  |  |  |  | 
CC[C@H](C)[C@H](NC(=O)[C@H](Cc1ccccc1)NC(=O)[C@H](CCC(=O)O)NC(=O)[C@H](CCCCN)NC(=O)[C@H](C)NC(=O)[C@H](C)NC(=O)[C@H](CCC(N)=O)NC(=O)CNC(=O)[C@H](CCC(=O)O)NC(=O)[C@H](CC(C)C)NC(=O)[C@H](Cc1ccc(O)cc1)NC(=O)[C@H](CO)NC(=O)[C@H](CO)NC(=O)[C@@H](NC(=O)[C@H](CC(=O)O)NC(=O)[C@H](CO)NC(=O)[C@@H](NC(=O)[C@H](Cc1ccccc1)NC(=O)[C@@H](NC(=O)CNC(=O)[C@H](CCC(=O)O)NC(=O)[C@H](C)NC(=O)[C@@H](N)Cc1c[nH]cn1)[C@@H](C)O)[C@@H](C)O)C(C)C)C(=O)N[C@@H](C)C(=O)N[C@@H](Cc1c[nH]c2ccccc12)C(=O)N[C@@H](CC(C)C)C(=O)N[C@H](C(=O)N[C@@H](CCCCN)C(=O)NCC(=O)N[C@@H](CCCNC(=N)N)C(N)=O)C(C)C [GLP-1] |  |  | 9.04 ± 0.92 mmol/L | 8.61 ± 0.39 mmol/L | did not appear to be altered | 0.4 nmol/kg | 5.1±0.4 pg insulin/μg protein | 0.65±0.15 pg insulin/μg protein
